Reference: patent publication EP0674651B1, “SUBSTITUTED 6-AZAANDROSTENONES” (priority 1992, dated 1994)

Experiments:
[1] = molecular target: T1, human type 2 5α-reductase (Homo sapiens, UniProt P31213); assay: 5α-reductase in vitro inhibitory activity, human type 2
T1 sequence (P31213 1-254): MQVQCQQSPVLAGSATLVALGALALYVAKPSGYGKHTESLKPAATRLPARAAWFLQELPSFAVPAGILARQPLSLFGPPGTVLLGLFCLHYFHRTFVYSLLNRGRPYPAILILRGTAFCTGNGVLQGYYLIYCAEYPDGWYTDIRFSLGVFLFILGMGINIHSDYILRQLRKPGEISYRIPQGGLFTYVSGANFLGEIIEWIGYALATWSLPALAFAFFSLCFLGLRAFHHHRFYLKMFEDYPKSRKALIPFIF

[2] = molecular target: T2, human type 1 5α-reductase (Homo sapiens, UniProt P18405); assay: 5α-reductase in vitro inhibitory activity, human type 1
T2 sequence (P18405 1-259): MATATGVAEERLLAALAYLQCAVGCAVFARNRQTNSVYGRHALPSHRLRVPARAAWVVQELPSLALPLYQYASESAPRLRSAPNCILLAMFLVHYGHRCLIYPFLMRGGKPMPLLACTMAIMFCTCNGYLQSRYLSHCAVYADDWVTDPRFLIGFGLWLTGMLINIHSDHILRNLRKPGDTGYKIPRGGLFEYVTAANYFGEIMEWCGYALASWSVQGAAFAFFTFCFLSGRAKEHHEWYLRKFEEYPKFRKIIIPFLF
Procedure: Microsomes were prepared by homogenization of the tissue or cells, followed by differential centrifugation of the homogenate. […] Corresponding incubations were carried out with no test compound as a control study.
For type 2 IC50 measurements, assay components except testosterone were preincubated for 20 minutes at pH 6.0, and following the addition of 8nM testosterone the assays were allowed to proceed for 20-40 minutes. The percentage of conversion of testosterone to DHT in the presence of test compounds compared to the corresponding conversion in the control study was estimated using high pressure liquid chromatography (HPLC) with radiochemical detection.

Row | Structure (SMILES) | IC50 [1] | IC50 [2]
1 | C[C@]12CC[C@H]3[C@@H](CNC4=CC(=O)CC[C@@]43C)[C@@H]1CC[C@@H]2C(=O)NCCSc1ccccc1 [Compound 23, 17β-N-2-(Phenylthio)ethyl-carbamoyl-6-azaandrost-4-en-3-one] | < 10 nM | 10 to 100 nM
2 | C[C@]12CC[C@H]3[C@@H](CNC4=CC(=O)CC[C@@]43C)[C@@H]1CC[C@@H]2C(=O)c1ccc(F)cc1F [Compound 26, 17β-(1-Oxo-1-(2,4-difluorophenyl)methyl)-6-azaandrost-4-en-3-one] | < 10 nM | 10 to 100 nM
3 | C[C@]12CC[C@H]3[C@@H](CNC4=CC(=O)CC[C@@]43C)[C@@H]1CC[C@@H]2C(=O)N1CCC(Cc2ccccc2)CC1 [Compound 37, 17β-N-(4-Benzyl)piperidyl-carbamoyl-6-azaandrost-4-en-3-one] | < 10 nM | 10 to 100 nM
4 | CCc1ccc(Cl)c(CC)c1NC(=O)[C@H]1CC[C@H]2[C@@H]3CNC4=CC(=O)CC[C@]4(C)[C@H]3CC[C@]12C [Compound 55, 17β-N-(2,6-Diethyl-3-chloro)phenyl-carbamoyl-6-azaandrost-4-en-3-one] | < 10 nM | 10 to 100 nM
5 | C[C@]12CC[C@H]3[C@@H](CNC4=CC(=O)CC[C@@]43C)[C@@H]1CC[C@@H]2C(=O)Nc1cc(C(F)(F)F)cc(C(F)(F)F)c1 [Compound 57, 17β-N-(3,5-Ditrifluoromethyl)phenyl-carbamoyl-6-azaandrost-4-en-3-one] | 10 to 100 nM | 10 to 100 nM
6 | CC1(C)CC(NC(=O)[C@H]2CC[C@H]3[C@@H]4CNC5=CC(=O)CC[C@]5(C)[C@H]4CC[C@]23C)CC(C)(C)C1 [Compound 59, 17β-N-(3,5-Tetramethyl)cyclohexyl-carbamoyl-6-azaandrost-4-en-3-one] | 10 to 100 nM | > 100 nM
7 | C[C@]12CC[C@H]3[C@@H](CNC4=CC(=O)CC[C@@]43C)[C@@H]1CC[C@@H]2C(=O)Nc1cc(C(F)(F)F)ccc1Br [Compound 61, 17β-N-(2-Bromo-5-trifluoromethyl)phenyl-carbamoyl-6-azaandrost-4-en-3-one] | < 10 nM | 10 to 100 nM
8 | CC(C)(NC(=O)[C@H]1CC[C@H]2[C@@H]3CNC4=CC(=O)CC[C@]4(C)[C@H]3CC[C@]12C)c1ccccc1 [Compound 63, 17β-N-(1-Methyl-1-phenyl)ethyl-carbamoyl-6-azaandrost-4-en-3-one] | < 10 nM | > 100 nM
9 | CC(C)C(NC(=O)[C@H]1CC[C@H]2[C@@H]3CNC4=CC(=O)CC[C@]4(C)[C@H]3CC[C@]12C)c1ccc(Cl)cc1 (stereo partly drawn) [Compound 65, 17β-N-(1-(4-Chlorophenyl)-2-methyl)propyl-carbamoyl-6-azaandrost-4-en-3-one] | < 10 nM | 10 to 100 nM
10 | CC(NC(=O)[C@H]1CC[C@H]2[C@@H]3CNC4=CC(=O)CC[C@]4(C)[C@H]3CC[C@]12C)(c1ccc(Cl)cc1)c1ccc(Cl)cc1 [Compound 66, 17β-N-(1,1-Di-4-chlorophenyl)ethyl-carbamoyl-6-azaandrost-4-en-3-one] | < 10 nM | > 100 nM
11 | CC(C)(C)c1ccc(C(NC(=O)[C@H]2CC[C@H]3[C@@H]4CNC5=CC(=O)CC[C@]5(C)[C@H]4CC[C@]23C)c2ccccc2)cc1 (stereo partly drawn) [Compound 67, 17β-N-(1 -Phenyl-1-(4-t-butyl)phenyl)methyl-carbamoyl-6-azaandrost-4-en-3-one] | < 10 nM | > 100 nM
12 | CCc1cc(Br)cc(CC)c1NC(=O)[C@H]1CC[C@H]2[C@@H]3CNC4=CC(=O)CC[C@]4(C)[C@H]3CC[C@]12C [Compound 70, 17β-N-(2,6-Diethyl-4-bromo)phenyl-carbamoyl-6-azaandrost-4-en-3-one] | < 10 nM | 10 to 100 nM
13 | CC(C)(C)c1ccc(NC(=O)[C@H]2CC[C@H]3[C@@H]4CNC5=CC(=O)CC[C@]5(C)[C@H]4CC[C@]23C)c(Br)c1 [Compound 71, 17β-N-(2-Bromo-4-t-butyl)phenyl-carbamoyl-6-azaandrost-4-en-3-one] | < 10 nM | 10 to 100 nM
14 | CC(C)(C)c1ccc(C(NC(=O)[C@H]2CC[C@H]3[C@@H]4CNC5=CC(=O)CC[C@]5(C)[C@H]4CC[C@]23C)C(C)(C)C)cc1 (stereo partly drawn) [Compound 73, 17β-N-(1-t-Butyl-1-(4-t-butylphenyl))methyl-carbamoyl-6-azaandrost-4-en-3-one] | < 10 nM | < 10 nM
15 | CC(C)(C)c1ccc(Br)cc1NC(=O)[C@H]1CC[C@H]2[C@@H]3CNC4=CC(=O)CC[C@]4(C)[C@H]3CC[C@]12C [Compound 74, 17β-N-(5-Bromo-2-t-butyl)phenyl-carbamoyl-6-azaandrost-4-en-3-one] | < 10 nM | < 10 nM
16 | CC(C)(C)c1ccc(Cl)cc1NC(=O)[C@H]1CC[C@H]2[C@@H]3CNC4=CC(=O)CC[C@]4(C)[C@H]3CC[C@]12C [Compound 75, 17β-N-(5-Chloro-2-t-butyl)phenyl-carbamoyl-6-azaandrost-4-en-3-one] | < 10 nM | < 10 nM
17 | CCc1cccc(CC)c1NC(=O)[C@H]1CC[C@H]2[C@@H]3CNC4=CC(=O)CC[C@]4(C)[C@H]3CC[C@]12C [Compound 76, 17β-N-(2,6-Diethyl)phenyl-carbamoyl-6-azaandrost-4-en-3-one] | < 10 nM | 10 to 100 nM
18 | CC(C)(C)c1cc(Br)ccc1NC(=O)[C@H]1CC[C@H]2[C@@H]3CNC4=CC(=O)CC[C@]4(C)[C@H]3CC[C@]12C [Compound 77, 17β-N-(4-Bromo-2-t-butyl)phenyl-carbamoyl-6-azaandrost-4-en-3-one] | < 10 nM | < 10 nM
19 | CC(C)(C)c1ccc(C#N)cc1NC(=O)[C@H]1CC[C@H]2[C@@H]3CNC4=CC(=O)CC[C@]4(C)[C@H]3CC[C@]12C [Compound 78, 17β-N-(2-t-Butyl-5-cyano)phenyl-carbamoyl-6-azaandrost-4-en-3-one] | < 10 nM | 10 to 100 nM
20 | Cc1ccc(Oc2ccc(C(F)(F)F)cc2NC(=O)[C@H]2CC[C@H]3[C@@H]4CNC5=CC(=O)CC[C@]5(C)[C@H]4CC[C@]23C)cc1 [Compound 79, 17β-N-(2-(O-4-Tolyl)-5-trifluoromethyl)phenyl-carbamoyl-6-azaandrost-4-en-3-one] | < 10 nM | 10 to 100 nM

Continued, values first:

Row | IC50 [1] | IC50 [2] | Structure (SMILES)
21 |  | 10 to 100 nM | C[C@]12CC[C@H]3[C@@H](CNC4=CC(=O)CC[C@@]43C)[C@@H]1CC[C@@H]2C(=O)NC(c1ccc(F)cc1)c1ccc(F)cc1 [Compound 24, 17β-N-Bis-(4-fluorophenyl)methyl-carbamoyl-6-azaandrost-4-en-3-one]
22 |  | 10 to 100 nM | CC(C)(C)N(O)C(=O)[C@H]1CC[C@H]2[C@@H]3CNC4=CC(=O)CC[C@]4(C)[C@H]3CC[C@]12C [Compound 41, 17β-N-Hydroxy-N-t-butyl-carbamoyl-6-azaandrost-4-en-3-one]
23 | < 10 nM | 10 to 100 nM | CCc1c(Cl)cc(Cl)c(CC)c1NC(=O)[C@H]1CC[C@H]2[C@@H]3CNC4=CC(=O)CC[C@]4(C)[C@H]3CC[C@]12C [Compound 54, 17β-N-(2,6-Diethyl-3,5-dichloro)phenyl-carbamoyl-6-azaandrost-4-en-3-one]
24 | < 10 nM | 10 to 100 nM | CC(C)(C)c1ccccc1NC(=O)[C@H]1CC[C@H]2[C@@H]3CNC4=CC(=O)CC[C@]4(C)[C@H]3CC[C@]12C [Compound 56, 17β-N-(2-t-Butyl)phenyl-carbamoyl-6-azaandrost-4-en-3-one]
25 | < 10 nM | 10 to 100 nM | C[C@]12CC[C@H]3[C@@H](CNC4=CC(=O)CC[C@@]43C)[C@@H]1CC[C@@H]2C(=O)Nc1c(Cl)cc(Cl)cc1Cl [Compound 58, 17β-N-(2,4,6-Trichloro)phenyl-carbamoyl-6-azaandrost-4-en-3-one]
26 | 10 to 100 nM | > 100 nM | CC(C)c1cc(C(C)C)c(C(=O)[C@H]2CC[C@H]3[C@@H]4CNC5=CC(=O)CC[C@]5(C)[C@H]4CC[C@]23C)c(C(C)C)c1 [Compound 60, 17β-(1-Oxo-1-((2,4,6-tri-i-propyl)phenyl)methyl)-6-azaandrost-4-en-3-one]
27 | < 10 nM | > 100 nM | Cc1cccc(C(C)(C)C)c1NC(=O)[C@H]1CC[C@H]2[C@@H]3CNC4=CC(=O)CC[C@]4(C)[C@H]3CC[C@]12C [Compound 62, 17β-N-(2-t-Butyl-6-methyl)phenyl-carbamoyl-6-azaandrost-4-en-3-one]
28 | < 10 nM | < 10 nM | C[C@]12CC[C@H]3[C@@H](CNC4=CC(=O)CC[C@@]43C)[C@@H]1CC[C@@H]2C(=O)NC1(c2ccc(Cl)cc2)CCCC1 [Compound 64, 17β-N-1-(4-Chlorophenyl)cyclopentyl-carbamoyl-6-azaandrost-4-en-3-one]
29 | < 10 nM | 10 to 100 nM | C[C@]12CC[C@H]3[C@@H](CNC4=CC(=O)CC[C@@]43C)[C@@H]1CC[C@@H]2C(=O)C1CC2CCC1C2 (stereo partly drawn) [Compound 68, 17β-(1-Oxo-1-(2-norbornyl)methyl)-6-azaandrost-4-en-3-one]
30 | < 10 nM | 10 to 100 nM | C[C@]12CC[C@H]3[C@@H](CNC4=CC(=O)CC[C@@]43C)[C@@H]1CC[C@@H]2C(=O)Nc1c(Br)cc(Cl)cc1Br [Compound 69, 17β-N-(2,6-Dibromo-4-chloro)phenyl-carbamoyl-6-azaandrost-4-en-3-one]
31 | < 10 nM | 10 to 100 nM | CC(C)(C)c1ccc(NC(=O)[C@H]2CC[C@H]3[C@@H]4CNC5=CC(=O)CC[C@]5(C)[C@H]4CC[C@]23C)c(Cl)c1 [Compound 72, 17β-N-(2-Chloro-4-t-butyl)phenyl-carbamoyl-6-azaandrost-4-en-3-one]
